In patent US20120165354A1, “TREATMENT METHOD” (GLAXO WELLCOME MANUFACTURING PTE LTD., priority 2009, published 2012):
Counter-ions that a name gives are not always drawn.

Key:
[1] = test system: subjects with occult or minimally classic subtypes of choroidal neovascularization due to AMD; assay: Optical coherence tomography central retinal thickness (OCT CRT/CRLT) in AMD patients, 28-day eye-drop study; assay type: in vivo, human
Description: (§1) Three dosing regimens of pazopanib monohydrochloride eye drops (5 mg/mL TID, 2 mg/mL TID, 5 mg/mL QD) were administered for 28 days to 70 subjects with occult or minimally classic subtypes of choroidal neovascularization due to AMD. This study was designed to measure pharmacological activity of topically administered pazopanib in target tissues (choroid and retina) of patients with AMD by weekly evaluation of central retinal lesion thickness as measured by optical coherence tomography (OCT). In addition, the ocular and systemic safety and systemic pharmacokinetics of pazopanib treatment for 28 days were evaluated. Evaluation of efficacy was performed on an exploratory basis by weekly measurement of visual acuity, performing best-corrected visual acuity assessments at screening and day 29.
(§2) Of the total of 70 subjects that were randomized, 28 had been previously treated with anti-angiogenic agents for treatment of macular degeneration and 42 were treatment-naïve. The protocol excluded subjects who had received any treatment for AMD within 60 days of the first dose of study medication in this trial. A total of 68 subjects completed all study assessments, of which 63 completed the assessments of Day 29 visit without receiving any rescue medication. 6 subjects received anti-VEGF rescue medication prior to the Day 29 assessment (1 of 27 in the 5 mg/ml TID arm, 2 of 27 in the 2 mg/ml TID, 3 of 16 subjects in the 5 mg QD arm, which was discontinued per protocol amendment due to feasibility.) Baseline characteristics in the study were similar between treatment groups, with the exception of age and lesion size, which were increased in the 2 mg/ml TID arm.
Sites were certified by a central reading center to collect images to assess Central Retinal Thickness (CRT, subretinal fluid) and Central Retinal Lesion Thickness (CRLT, subretinal fluid and neovascular lesion) on a Stratus OCT 3 instrument weekly. Values were then determined by manual measurement at the reading center. As used herein, “OCT CRLT” means optical coherence tomography central retinal/lesion thickness as determined by manual measurement of the distance between the inner and outer retina, inclusive of subretinal fluid and any choroidal neovascularization (CNV) as measured in the central 1 mm area of the 7 mm posterior pole scan. As used herein, “OCT CRT” means optical coherence tomography central retinal thickness as determined by manual measurement of the distance between the inner and outer retina inclusive of any subretinal fluid as measured in the central 1 mm area of the 7 mm posterior pole scan.

[2] = test system: subjects with occult or minimally classic subtypes of choroidal neovascularization due to AMD; assay: Best-corrected visual acuity (BCVA, ETDRS/AREDS procedure) in AMD patients, 28-day eye-drop study; assay type: in vivo, human; conditions: for Change from Baseline in BCVA Day 29, Point Estimate: Overall
Description: as §1, §2
Sites were trained and certified for visual acuity assessment with the standard procedure developed for the Early Treatment Diabetic Retinopathy Study (ETDRS) and adapted for the Age Related Eye Disease Study (AREDS). Best-corrected visual acuity (BCVA) measurements were performed at screening and Day 29 visits and, at other visits, use of the previous refraction for the visual acuity (VA) assessment was allowed.

Cc1ccc(Nc2nccc(N(C)c3ccc4c(C)n(C)nc4c3)n2)cc1S(N)(=O)=O [pazopanib monohydrochloride, 5-[[4-[(2,3-dimethyl-2H-indazol-6-yl)methylamino]-2-pyrimidinyl]amino]-2-methylbenzenesulfonamide monohydrochloride]
Change from Baseline in Central Retinal Thickness at Day 29, CRT LSMean ([1]; 2 mg/ml TID eye drops, CFH genotype CC, N=3): 22.15
Change from Baseline in Central Retinal Thickness at Day 29, CRT LSMean ([1]; 2 mg/ml TID eye drops, CFH genotype CT, N=10): −14.6
Change from Baseline in Central Retinal Thickness at Day 29, CRT LSMean ([1]; 2 mg/ml TID eye drops, CFH genotype TT, N=4): −45.5
Change from Baseline in Central Retinal Thickness at Day 29, CRT LSMean ([1]; 5 mg/ml TID eye drops, CFH genotype CC, N=7): 9.23
Change from Baseline in Central Retinal Thickness at Day 29, CRT LSMean ([1]; 5 mg/ml TID eye drops, CFH genotype CT, N=9): 21.51
Change from Baseline in Central Retinal Thickness at Day 29, CRT LSMean ([1]; 5 mg/ml TID eye drops, CFH genotype TT, N=5): −88.8
mean decrease in CRT ([1]; day 29, subjects with the CFH TT genotype, 5 mg/ml TID, statistically significant): 89 micron
changes from baseline in OCT CRT / CRLT ([1]; overall population): no statistically significant changes from baseline
Change from Baseline BCVA at Day 29, BCVA LSMean (SE) ([2]; 2 mg/ml TID, CFH Y402H genotype CC, N=3): 0.85 (4.07)
Change from Baseline BCVA at Day 29, BCVA LSMean (SE) ([2]; 2 mg/ml TID, CFH Y402H genotype CT, N=10): −1.52 (2.24)
Change from Baseline BCVA at Day 29, BCVA LSMean (SE) ([2]; 2 mg/ml TID, CFH Y402H genotype TT, N=4): 5.43 (3.60)
change in visual acuity ([2]; 5 mg/ml TID group only, enhanced in previously treated group and those with a T allele): Statistically significant increases
Change from Baseline BCVA at Day 29, BCVA LSMean (SE) ([2]; 5 mg/ml TID, CFH Y402H genotype CC, N=7): 0.36 (2.68)
Change from Baseline BCVA at Day 29, BCVA LSMean (SE) ([2]; 5 mg/ml TID, CFH Y402H genotype CT, N=9): 4.09 (2.38)
Change from Baseline BCVA at Day 29, BCVA LSMean (SE) ([2]; 5 mg/ml TID, CFH Y402H genotype TT, N=5): 6.96 (3.18)
Change from Baseline in BCVA at Day 29, Point Estimate ([2]; Naïve Subjects, 2 mg/mL TID): 1.16
Change from Baseline in BCVA at Day 29, Point Estimate ([2]; Naïve Subjects, 5 mg/mL TID): 3.38
Change from Baseline in BCVA at Day 29, Point Estimate ([2]; Naïve Subjects, 5 mg/mL once daily): 0.80
Change from Baseline in BCVA Day 29, Point Estimate ([2]; 2 mg/mL TID): 0.76
Change from Baseline in BCVA Day 29, Point Estimate ([2]; 5 mg/mL QD): 0.09
Change from Baseline in BCVA Day 29, Point Estimate ([2]; 5 mg/mL TID): 4.32
Change from Baseline in BCVA at Day 29, Point Estimate ([2]; Previously Treated Subjects, 2 mg/mL TID): 0.18
Change from Baseline in BCVA at Day 29, Point Estimate ([2]; Previously Treated Subjects, 5 mg/mL TID): 5.61
Change from Baseline in BCVA at Day 29, Point Estimate ([2]; Previously Treated Subjects, 5 mg/mL once daily): −0.80
